Assay [1] addresses T1, BhFBPA (Bartonella henselae fructose bisphosphate aldolase) (Bartonella henselae, UniProt Q8L207).
T1 construct: gene fbab; full length, 343 residues; E. coli BL21(DE3) R3 Rosetta; 39495 Da; homotetramer; residues 1-340 modelled
T1 sequence (Q8L207 1-343): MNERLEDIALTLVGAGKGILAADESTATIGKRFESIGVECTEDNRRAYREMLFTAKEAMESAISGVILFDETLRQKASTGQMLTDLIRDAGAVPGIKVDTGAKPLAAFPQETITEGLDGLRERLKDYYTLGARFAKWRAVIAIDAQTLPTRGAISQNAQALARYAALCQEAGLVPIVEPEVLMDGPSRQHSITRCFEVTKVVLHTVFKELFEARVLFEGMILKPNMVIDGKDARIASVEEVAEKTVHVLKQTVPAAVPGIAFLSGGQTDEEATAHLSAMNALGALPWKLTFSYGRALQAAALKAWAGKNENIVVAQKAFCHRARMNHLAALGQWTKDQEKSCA
The assay can be described thus: X-ray crystal structure of the complex ([…] A, cocrystallization). Format: binding. As to conditions: covalent; Schiff base of C2 of linear FBP with Lys223 at the active site; 10 mM FBP, pH 8.5, 290 K.

For assay [2], the target named is Bartonella henselae fructose bisphosphate aldolase (Bartonella henselae). The assay can be described thus: crystal structure; cocrystallised with 10 mM fructose 1,6-bisphosphate, vapor diffusion at 290 K, 0.2 M sodium acetate, 0.1 M Tris pH 8.5, 30% PEG 4000; four monomers in the asymmetric unit; 2.35 A.

Consider `O=P(O)(O)OC[C@H]1OC(O)(COP(=O)(O)O)[C@@H](O)[C@@H]1O` (some centres unmarked) [fructose 1,6-bisphosphate], for which the “X-ray crystal structure of the complex (2.35 A, cocrystallization)” value in assay [1] is recorded as “This structure has clear electron density for FBP bound at the active site”. For “Bartonella henselae fructose bisphosphate aldolase (enzyme)”, the stoichiometry N (usually a count of units in the complex or per binding partner) in assay [2] came out at 4.

Source of the values: article PMC3169401, “Structure of fructose bisphosphate aldolase from Bartonella henselae bound to fructose 1,6-bisphosphate” (Acta Crystallographica Section F: Structural Biology and …, 2011).
